From the kinase profiling compilation of Christmann-Franck et al. (2016)
Several values for one entry are separate records, joined by “and”; a condition that tells them apart may be missing. Equal values may be shown once.

biological target: RET (human) (UniProt P07949); test: radiometric filter-binding kinase assay, Kinase HotSpot; conditions: compound 0.5 µM; ATP 10 µM

SMILES | residual activity
CC(C)n1cnc2c(Nc3cccc(Cl)c3)nc(NCCO)nc21 | 82.9%
COc1cc2nccc(Oc3ccc(NC(=S)NC(=O)c4ccccc4C)cc3)c2cc1OC | 86.7%
CCN1/C(=C/C(C)=O)Sc2ccc(OC)cc21 | 96.5%

biological target: CDC42BPB (human) (UniProt Q9Y5S2); test: as above; conditions: compound 0.5 µM; ATP 10 µM

SMILES | residual activity
O=C(Nc1ccc(Cl)cc1)c1ccccc1NCc1ccncc1 | 79.9%
CC(C)n1cnc2c(Nc3cccc(Cl)c3)nc(NCCO)nc21 | 109%
COc1cc2nccc(Oc3ccc(NC(=S)NC(=O)c4ccccc4C)cc3)c2cc1OC | 90.5%
CCN1/C(=C/C(C)=O)Sc2ccc(OC)cc21 | 114%

biological target: NTRK2 (human) (UniProt Q16620); test: as above; conditions: compound 0.5 µM; ATP 10 µM

SMILES | residual activity
O=C(Nc1ccc(Cl)cc1)c1ccccc1NCc1ccncc1 | 102%
CC(C)n1cnc2c(Nc3cccc(Cl)c3)nc(NCCO)nc21 | 66.1%
COc1cc2nccc(Oc3ccc(NC(=S)NC(=O)c4ccccc4C)cc3)c2cc1OC | 102%
CCN1/C(=C/C(C)=O)Sc2ccc(OC)cc21 | 104%

biological target: DCLK2 (human) (UniProt Q8N568); test: as above; conditions: compound 0.5 µM; ATP 10 µM

SMILES | residual activity
O=C(Nc1ccc(Cl)cc1)c1ccccc1NCc1ccncc1 | 95.2%
CC(C)n1cnc2c(Nc3cccc(Cl)c3)nc(NCCO)nc21 | 97.8%
COc1cc2nccc(Oc3ccc(NC(=S)NC(=O)c4ccccc4C)cc3)c2cc1OC | 91.5%
CCN1/C(=C/C(C)=O)Sc2ccc(OC)cc21 | 97.9%

biological target: NEK6 (human) (UniProt Q9HC98); test: as above; conditions: compound 0.5 µM; ATP 10 µM
Sequence (Q9HC98 whole entry, looked up): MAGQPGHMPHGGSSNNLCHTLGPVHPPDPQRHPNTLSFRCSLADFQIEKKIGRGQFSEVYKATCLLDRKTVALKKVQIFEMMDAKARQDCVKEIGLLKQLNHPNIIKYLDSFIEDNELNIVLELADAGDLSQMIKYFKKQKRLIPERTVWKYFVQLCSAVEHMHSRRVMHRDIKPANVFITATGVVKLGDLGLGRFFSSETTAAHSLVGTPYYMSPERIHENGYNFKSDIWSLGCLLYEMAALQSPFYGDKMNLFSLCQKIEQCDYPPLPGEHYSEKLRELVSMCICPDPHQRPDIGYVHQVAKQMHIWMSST

SMILES | residual activity
O=C(Nc1ccc(Cl)cc1)c1ccccc1NCc1ccncc1 | 97.1%
CC(C)n1cnc2c(Nc3cccc(Cl)c3)nc(NCCO)nc21 | 101%
COc1cc2nccc(Oc3ccc(NC(=S)NC(=O)c4ccccc4C)cc3)c2cc1OC | 92.4%
CCN1/C(=C/C(C)=O)Sc2ccc(OC)cc21 | 109%

biological target: PRKG1 (human) (UniProt Q13976); test: as above; conditions: compound 0.5 µM; ATP 10 µM
Sequence (Q13976 whole entry, looked up): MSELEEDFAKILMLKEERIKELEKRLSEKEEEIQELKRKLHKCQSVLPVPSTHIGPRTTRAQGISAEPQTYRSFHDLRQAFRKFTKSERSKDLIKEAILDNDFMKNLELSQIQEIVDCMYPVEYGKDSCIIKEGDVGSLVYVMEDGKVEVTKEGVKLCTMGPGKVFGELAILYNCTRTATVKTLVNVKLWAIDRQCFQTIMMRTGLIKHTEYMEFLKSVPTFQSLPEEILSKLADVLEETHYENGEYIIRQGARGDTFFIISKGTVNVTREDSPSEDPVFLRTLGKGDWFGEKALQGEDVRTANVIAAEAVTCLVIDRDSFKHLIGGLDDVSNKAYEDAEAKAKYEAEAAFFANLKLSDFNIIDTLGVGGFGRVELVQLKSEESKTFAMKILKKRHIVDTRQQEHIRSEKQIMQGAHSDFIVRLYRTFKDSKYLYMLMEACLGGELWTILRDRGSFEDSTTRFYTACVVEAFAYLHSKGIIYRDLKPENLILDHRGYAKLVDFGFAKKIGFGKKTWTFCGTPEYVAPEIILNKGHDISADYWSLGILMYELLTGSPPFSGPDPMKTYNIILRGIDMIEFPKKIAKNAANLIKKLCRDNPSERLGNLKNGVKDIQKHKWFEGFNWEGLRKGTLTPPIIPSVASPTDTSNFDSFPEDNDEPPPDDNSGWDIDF

SMILES | residual activity
O=C(Nc1ccc(Cl)cc1)c1ccccc1NCc1ccncc1 | 86.8% and 92.3%
CC(C)n1cnc2c(Nc3cccc(Cl)c3)nc(NCCO)nc21 | 92.2% and 98.1%
COc1cc2nccc(Oc3ccc(NC(=S)NC(=O)c4ccccc4C)cc3)c2cc1OC | 101% and 91.6%
CCN1/C(=C/C(C)=O)Sc2ccc(OC)cc21 | 82.4% and 87%

biological target: PAK3 (human) (UniProt O75914); test: as above; conditions: compound 0.5 µM; ATP 10 µM
Sequence (O75914 whole entry, looked up): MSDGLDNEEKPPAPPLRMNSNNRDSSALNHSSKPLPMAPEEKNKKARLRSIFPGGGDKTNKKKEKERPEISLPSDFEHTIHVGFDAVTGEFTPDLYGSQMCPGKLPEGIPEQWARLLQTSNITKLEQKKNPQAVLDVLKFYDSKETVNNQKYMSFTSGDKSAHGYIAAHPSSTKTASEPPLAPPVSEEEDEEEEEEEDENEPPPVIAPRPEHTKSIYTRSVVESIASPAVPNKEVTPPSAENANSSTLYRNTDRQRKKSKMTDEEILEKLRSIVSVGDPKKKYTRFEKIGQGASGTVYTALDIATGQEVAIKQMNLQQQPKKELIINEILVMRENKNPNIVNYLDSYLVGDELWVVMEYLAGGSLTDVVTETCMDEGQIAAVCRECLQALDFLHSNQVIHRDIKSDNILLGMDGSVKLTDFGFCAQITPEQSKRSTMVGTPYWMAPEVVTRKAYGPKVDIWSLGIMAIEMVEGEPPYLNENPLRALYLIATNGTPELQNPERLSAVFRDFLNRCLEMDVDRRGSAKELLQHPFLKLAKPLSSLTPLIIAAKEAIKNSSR

SMILES | residual activity
O=C(Nc1ccc(Cl)cc1)c1ccccc1NCc1ccncc1 | 95.5%
CC(C)n1cnc2c(Nc3cccc(Cl)c3)nc(NCCO)nc21 | 96.7%
COc1cc2nccc(Oc3ccc(NC(=S)NC(=O)c4ccccc4C)cc3)c2cc1OC | 99.7%
CCN1/C(=C/C(C)=O)Sc2ccc(OC)cc21 | 96.3%

biological target: NTRK3 (human) (UniProt Q16288); test: as above; conditions: compound 0.5 µM; ATP 10 µM

SMILES | residual activity
O=C(Nc1ccc(Cl)cc1)c1ccccc1NCc1ccncc1 | 97%
CC(C)n1cnc2c(Nc3cccc(Cl)c3)nc(NCCO)nc21 | 30.7%
COc1cc2nccc(Oc3ccc(NC(=S)NC(=O)c4ccccc4C)cc3)c2cc1OC | 86.1%
CCN1/C(=C/C(C)=O)Sc2ccc(OC)cc21 | 91.9%

biological target: CLK4 (human) (UniProt Q9HAZ1); test: as above; conditions: compound 0.5 µM; ATP 10 µM
Sequence (Q9HAZ1 whole entry, looked up): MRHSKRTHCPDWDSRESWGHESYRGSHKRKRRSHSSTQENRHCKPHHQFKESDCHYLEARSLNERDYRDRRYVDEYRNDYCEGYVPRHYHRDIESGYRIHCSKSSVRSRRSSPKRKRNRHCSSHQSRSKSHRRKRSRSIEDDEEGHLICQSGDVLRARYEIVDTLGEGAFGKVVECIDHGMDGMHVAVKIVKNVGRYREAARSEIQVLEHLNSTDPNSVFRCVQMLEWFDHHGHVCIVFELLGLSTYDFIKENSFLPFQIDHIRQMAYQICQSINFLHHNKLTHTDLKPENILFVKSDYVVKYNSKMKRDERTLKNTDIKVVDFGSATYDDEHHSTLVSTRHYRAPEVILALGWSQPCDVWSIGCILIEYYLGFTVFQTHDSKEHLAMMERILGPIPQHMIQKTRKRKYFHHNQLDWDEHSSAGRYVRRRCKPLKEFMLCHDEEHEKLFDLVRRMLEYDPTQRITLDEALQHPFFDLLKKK

SMILES | residual activity
O=C(Nc1ccc(Cl)cc1)c1ccccc1NCc1ccncc1 | 107%
CC(C)n1cnc2c(Nc3cccc(Cl)c3)nc(NCCO)nc21 | 36.1%
COc1cc2nccc(Oc3ccc(NC(=S)NC(=O)c4ccccc4C)cc3)c2cc1OC | 87.8%
CCN1/C(=C/C(C)=O)Sc2ccc(OC)cc21 | 18.5%

biological target: BRSK1 (human) (UniProt Q8TDC3); test: as above; conditions: compound 0.5 µM; ATP 10 µM

SMILES | residual activity
O=C(Nc1ccc(Cl)cc1)c1ccccc1NCc1ccncc1 | 94%
CC(C)n1cnc2c(Nc3cccc(Cl)c3)nc(NCCO)nc21 | 93.1%
COc1cc2nccc(Oc3ccc(NC(=S)NC(=O)c4ccccc4C)cc3)c2cc1OC | 87%
CCN1/C(=C/C(C)=O)Sc2ccc(OC)cc21 | 89.4%

biological target: MAPK9 (human) (UniProt P45984); test: as above; conditions: compound 0.5 µM; ATP 10 µM
Sequence (P45984 whole entry, looked up): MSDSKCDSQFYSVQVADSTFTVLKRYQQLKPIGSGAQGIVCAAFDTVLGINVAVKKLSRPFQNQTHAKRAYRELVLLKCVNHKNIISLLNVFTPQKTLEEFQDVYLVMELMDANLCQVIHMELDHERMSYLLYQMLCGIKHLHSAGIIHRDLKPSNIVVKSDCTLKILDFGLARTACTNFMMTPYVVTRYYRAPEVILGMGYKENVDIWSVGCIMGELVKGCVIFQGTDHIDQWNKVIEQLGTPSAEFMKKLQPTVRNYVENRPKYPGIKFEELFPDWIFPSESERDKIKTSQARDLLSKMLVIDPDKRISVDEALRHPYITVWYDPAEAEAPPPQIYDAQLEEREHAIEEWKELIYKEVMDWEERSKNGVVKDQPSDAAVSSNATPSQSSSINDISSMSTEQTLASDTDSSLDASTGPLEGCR

SMILES | residual activity
O=C(Nc1ccc(Cl)cc1)c1ccccc1NCc1ccncc1 | 102%
CC(C)n1cnc2c(Nc3cccc(Cl)c3)nc(NCCO)nc21 | 101%
COc1cc2nccc(Oc3ccc(NC(=S)NC(=O)c4ccccc4C)cc3)c2cc1OC | 82.7%
CCN1/C(=C/C(C)=O)Sc2ccc(OC)cc21 | 101%

biological target: EPHA1 (human) (UniProt P21709); test: as above; conditions: compound 0.5 µM; ATP 10 µM

SMILES | residual activity
O=C(Nc1ccc(Cl)cc1)c1ccccc1NCc1ccncc1 | 97%
CC(C)n1cnc2c(Nc3cccc(Cl)c3)nc(NCCO)nc21 | 94.1%
COc1cc2nccc(Oc3ccc(NC(=S)NC(=O)c4ccccc4C)cc3)c2cc1OC | 83%
CCN1/C(=C/C(C)=O)Sc2ccc(OC)cc21 | 95.8%

biological target: CSNK1G1 (human) (UniProt Q9HCP0); test: as above; conditions: compound 0.5 µM; ATP 10 µM
Sequence (Q9HCP0 whole entry, looked up): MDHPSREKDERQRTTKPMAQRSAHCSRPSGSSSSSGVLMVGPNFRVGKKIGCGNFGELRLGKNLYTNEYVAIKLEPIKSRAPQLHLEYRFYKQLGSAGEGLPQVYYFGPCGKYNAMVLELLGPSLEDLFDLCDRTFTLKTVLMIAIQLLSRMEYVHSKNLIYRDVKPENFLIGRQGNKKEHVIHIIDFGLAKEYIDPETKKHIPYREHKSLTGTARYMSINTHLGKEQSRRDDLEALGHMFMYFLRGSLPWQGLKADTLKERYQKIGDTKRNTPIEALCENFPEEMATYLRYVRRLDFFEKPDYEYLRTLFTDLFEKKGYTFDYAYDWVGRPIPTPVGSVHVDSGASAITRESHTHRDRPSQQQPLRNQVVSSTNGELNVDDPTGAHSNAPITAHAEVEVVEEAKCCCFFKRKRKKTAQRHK

SMILES | residual activity
O=C(Nc1ccc(Cl)cc1)c1ccccc1NCc1ccncc1 | 110%
CC(C)n1cnc2c(Nc3cccc(Cl)c3)nc(NCCO)nc21 | 16%
COc1cc2nccc(Oc3ccc(NC(=S)NC(=O)c4ccccc4C)cc3)c2cc1OC | 80.1%
CCN1/C(=C/C(C)=O)Sc2ccc(OC)cc21 | 87.8%

biological target: HIPK1 (human) (UniProt Q86Z02); test: as above; conditions: compound 0.5 µM; ATP 10 µM
Sequence (Q86Z02 whole entry, looked up): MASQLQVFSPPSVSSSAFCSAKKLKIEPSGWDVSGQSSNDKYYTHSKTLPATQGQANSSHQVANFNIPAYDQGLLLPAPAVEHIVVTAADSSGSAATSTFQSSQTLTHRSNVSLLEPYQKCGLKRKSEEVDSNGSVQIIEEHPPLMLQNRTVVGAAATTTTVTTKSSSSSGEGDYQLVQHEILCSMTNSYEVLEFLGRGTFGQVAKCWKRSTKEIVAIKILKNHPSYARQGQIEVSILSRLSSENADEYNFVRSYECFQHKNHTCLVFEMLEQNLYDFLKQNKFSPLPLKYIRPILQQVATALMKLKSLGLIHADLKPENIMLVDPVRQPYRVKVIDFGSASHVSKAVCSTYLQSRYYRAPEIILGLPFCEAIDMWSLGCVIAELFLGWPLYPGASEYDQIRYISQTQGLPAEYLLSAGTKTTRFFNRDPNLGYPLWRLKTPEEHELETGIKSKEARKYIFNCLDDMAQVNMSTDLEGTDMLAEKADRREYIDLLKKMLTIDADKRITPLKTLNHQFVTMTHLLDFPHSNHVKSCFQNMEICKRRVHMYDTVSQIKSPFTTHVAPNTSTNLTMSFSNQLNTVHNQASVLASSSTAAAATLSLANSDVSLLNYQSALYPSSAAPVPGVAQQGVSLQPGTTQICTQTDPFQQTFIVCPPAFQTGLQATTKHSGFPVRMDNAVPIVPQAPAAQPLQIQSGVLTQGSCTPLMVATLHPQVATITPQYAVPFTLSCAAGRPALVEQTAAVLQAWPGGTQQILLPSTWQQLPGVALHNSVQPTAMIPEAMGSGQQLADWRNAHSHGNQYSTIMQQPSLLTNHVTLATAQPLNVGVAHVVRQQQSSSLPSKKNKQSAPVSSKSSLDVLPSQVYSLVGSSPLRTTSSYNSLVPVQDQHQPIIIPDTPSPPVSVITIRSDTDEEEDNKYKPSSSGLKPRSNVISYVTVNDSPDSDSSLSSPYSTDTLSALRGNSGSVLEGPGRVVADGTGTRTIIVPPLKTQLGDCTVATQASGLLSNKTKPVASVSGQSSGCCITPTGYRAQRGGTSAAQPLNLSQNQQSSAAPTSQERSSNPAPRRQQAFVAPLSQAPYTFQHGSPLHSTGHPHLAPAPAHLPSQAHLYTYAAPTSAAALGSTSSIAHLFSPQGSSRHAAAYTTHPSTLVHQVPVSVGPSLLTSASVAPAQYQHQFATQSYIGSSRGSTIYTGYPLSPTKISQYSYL

SMILES | residual activity
O=C(Nc1ccc(Cl)cc1)c1ccccc1NCc1ccncc1 | 92.7%
CC(C)n1cnc2c(Nc3cccc(Cl)c3)nc(NCCO)nc21 | 99.8%
COc1cc2nccc(Oc3ccc(NC(=S)NC(=O)c4ccccc4C)cc3)c2cc1OC | 100%
CCN1/C(=C/C(C)=O)Sc2ccc(OC)cc21 | 95%

biological target: WEE1 (human) (UniProt P30291); test: as above; conditions: compound 0.5 µM; ATP 10 µM

SMILES | residual activity
O=C(Nc1ccc(Cl)cc1)c1ccccc1NCc1ccncc1 | 90.1%
CC(C)n1cnc2c(Nc3cccc(Cl)c3)nc(NCCO)nc21 | 98.9%
COc1cc2nccc(Oc3ccc(NC(=S)NC(=O)c4ccccc4C)cc3)c2cc1OC | 89.6%
CCN1/C(=C/C(C)=O)Sc2ccc(OC)cc21 | 102%

biological target: PAK2 (human) (UniProt Q13177); test: as above; conditions: compound 0.5 µM; ATP 10 µM
Sequence (Q13177 whole entry, looked up): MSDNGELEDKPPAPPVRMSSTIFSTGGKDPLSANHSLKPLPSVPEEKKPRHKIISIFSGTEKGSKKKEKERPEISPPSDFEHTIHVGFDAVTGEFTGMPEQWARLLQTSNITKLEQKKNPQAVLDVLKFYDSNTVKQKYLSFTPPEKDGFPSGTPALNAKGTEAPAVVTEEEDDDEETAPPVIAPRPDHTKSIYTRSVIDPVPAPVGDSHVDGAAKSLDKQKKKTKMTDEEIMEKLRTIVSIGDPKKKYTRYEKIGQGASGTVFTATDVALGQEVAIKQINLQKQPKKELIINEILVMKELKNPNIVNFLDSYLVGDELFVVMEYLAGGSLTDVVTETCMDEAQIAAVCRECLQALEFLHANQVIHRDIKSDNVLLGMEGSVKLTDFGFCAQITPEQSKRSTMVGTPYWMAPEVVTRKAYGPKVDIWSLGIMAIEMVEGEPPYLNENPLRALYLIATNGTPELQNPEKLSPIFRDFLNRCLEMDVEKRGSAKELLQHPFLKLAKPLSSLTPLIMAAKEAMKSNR

SMILES | residual activity
O=C(Nc1ccc(Cl)cc1)c1ccccc1NCc1ccncc1 | 91%
CC(C)n1cnc2c(Nc3cccc(Cl)c3)nc(NCCO)nc21 | 106%
COc1cc2nccc(Oc3ccc(NC(=S)NC(=O)c4ccccc4C)cc3)c2cc1OC | 91.2%
CCN1/C(=C/C(C)=O)Sc2ccc(OC)cc21 | 105%

biological target: TSSK1B (human) (UniProt Q9BXA7); test: as above; conditions: compound 0.5 µM; ATP 10 µM

SMILES | residual activity
O=C(Nc1ccc(Cl)cc1)c1ccccc1NCc1ccncc1 | 103%
CC(C)n1cnc2c(Nc3cccc(Cl)c3)nc(NCCO)nc21 | 91.9%
COc1cc2nccc(Oc3ccc(NC(=S)NC(=O)c4ccccc4C)cc3)c2cc1OC | 83.6%
CCN1/C(=C/C(C)=O)Sc2ccc(OC)cc21 | 110%

biological target: GRK6 (human) (UniProt P43250); test: as above; conditions: compound 0.5 µM; ATP 10 µM

SMILES | residual activity
O=C(Nc1ccc(Cl)cc1)c1ccccc1NCc1ccncc1 | 101%
CC(C)n1cnc2c(Nc3cccc(Cl)c3)nc(NCCO)nc21 | 88.8%
COc1cc2nccc(Oc3ccc(NC(=S)NC(=O)c4ccccc4C)cc3)c2cc1OC | 91%
CCN1/C(=C/C(C)=O)Sc2ccc(OC)cc21 | 103%

biological target: LRRK2 (human) (UniProt Q5S007); test: as above; conditions: compound 0.5 µM; ATP 10 µM

SMILES | residual activity
O=C(Nc1ccc(Cl)cc1)c1ccccc1NCc1ccncc1 | 98.7%
CC(C)n1cnc2c(Nc3cccc(Cl)c3)nc(NCCO)nc21 | 72.8%
COc1cc2nccc(Oc3ccc(NC(=S)NC(=O)c4ccccc4C)cc3)c2cc1OC | 94.4%
CCN1/C(=C/C(C)=O)Sc2ccc(OC)cc21 | 98.1%

biological target: ROS1 (human) (UniProt P08922); test: as above; conditions: compound 0.5 µM; ATP 10 µM

SMILES | residual activity
O=C(Nc1ccc(Cl)cc1)c1ccccc1NCc1ccncc1 | 100%
CC(C)n1cnc2c(Nc3cccc(Cl)c3)nc(NCCO)nc21 | 102%
COc1cc2nccc(Oc3ccc(NC(=S)NC(=O)c4ccccc4C)cc3)c2cc1OC | 26.7%
CCN1/C(=C/C(C)=O)Sc2ccc(OC)cc21 | 113%

biological target: MAPKAPK2 (human) (UniProt P49137); test: as above; conditions: compound 0.5 µM; ATP 10 µM
Sequence (P49137 whole entry, looked up): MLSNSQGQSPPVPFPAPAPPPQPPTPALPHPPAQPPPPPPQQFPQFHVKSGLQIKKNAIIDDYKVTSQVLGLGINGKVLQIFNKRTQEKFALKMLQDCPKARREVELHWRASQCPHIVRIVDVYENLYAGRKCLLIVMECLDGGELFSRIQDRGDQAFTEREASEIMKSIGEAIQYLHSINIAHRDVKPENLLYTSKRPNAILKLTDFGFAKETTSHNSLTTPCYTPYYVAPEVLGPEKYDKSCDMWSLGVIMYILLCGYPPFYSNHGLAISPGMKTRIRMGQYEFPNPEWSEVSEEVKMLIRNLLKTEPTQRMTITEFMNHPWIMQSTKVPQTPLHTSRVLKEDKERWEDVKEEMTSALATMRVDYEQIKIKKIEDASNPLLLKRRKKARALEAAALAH

SMILES | residual activity
O=C(Nc1ccc(Cl)cc1)c1ccccc1NCc1ccncc1 | 97.6%
CC(C)n1cnc2c(Nc3cccc(Cl)c3)nc(NCCO)nc21 | 98.9%
COc1cc2nccc(Oc3ccc(NC(=S)NC(=O)c4ccccc4C)cc3)c2cc1OC | 98%
CCN1/C(=C/C(C)=O)Sc2ccc(OC)cc21 | 94.6%
